In patent US12144795B2, “Cannabidiol compositions having modified cannabinoid profiles” (priority 2018, dated 2024):

Key:
Assay type in all cases: physicochemical
[1] = Stress stability tests of CBD (acidic, alkaline, oxidative, light, heat, humidity; UPLC, LC-MS, PDA-UV)
Experimental: Cannabidiol samples obtained by Protocol 1 were subjected to acidic, alkaline, and oxidizing conditions in order to achieve a degradation of at least 3% or a change in appearance. The impact of light, heat, and humidity on the stability of the drug substance was investigated. The assay and purity of samples were analyzed by UPLC. The identity of unknown impurities was examined by LC-MS. The peak purity of cannabidiol after exposure to stress conditions was investigated by comparing the PDA-UV spectrum (photodiode array-ultraviolet) of cannabidiol with the spectrum of the unstressed sample and in addition by LC-MS analysis of the cannabidiol peak. The assay of the unstressed sample in FIG. 15A and FIG. 15B was used as a reference to calculate the extent of degradation of CBD under the representative stress conditions: Degradation of CBD=(1−[assay of stressed sample]/[assay unstressed sample])*100% […]
In a 20 ml GC headspace vial, 150 mg of CBD was suspended in 8 mL of 0.1 M sodium hydroxide and heated to T=80° C. for 2 h, 4 h and 6 h, respectively. […]

[2] = Stability studies of CBD prepared via Protocol 3 (crude, pure, 2x recrystallized; 5° C., 25° C./60% RH, 40° C./75% RH)
[3] = Anti-solvent crystallization, solid form by HT-XRPD of precipitates and evaporated mother liquors, before and after AAC
Experimental: For the anti-solvent crystallization experiments, clear solutions of CBD of approximately 60 mg/mL were prepared. Briefly, 1 volume of cannabidiol solution was added to 4 volumes of anti-solvent. If solids were precipitated, they were collected by centrifugation. The solid was analyzed by XRPD after being dried under ambient conditions and following drying under deep vacuum. The mother liquors were allowed to evaporate until completely dry and the remaining solids analyzed as well. All solids were analyzed by XRPD before and after exposure to accelerated aging conditions (40° C./75% RH) for two days.
Solids precipitated immediately from the combination of methanol with water. To facilitate precipitation, the samples were placed at 5° C. for 24 hours. […] When no XRPD record was generated, the field is defined as “Not Applicable” (N/A).

[4] = solvent 1,2-Dimethoxyethane, anti-solvent Decane
[5] = solvent Acetone, anti-solvent 2,2,4-Trimethylepentane
[6] = solvent Acetonitrile, anti-solvent Decane
[7] = solvent Ethanol, anti-solvent Decane
[8] = solvent Ethyl acetate, anti-solvent 2,2,4-Trimethylepentane
[9] = solvent Isopropyl acetate, anti-solvent 2,2,4-Trimethylepentane
[10] = solvent Toluene, anti-solvent Decane

C=C(C)[C@@H]1CCC(C)=C[C@H]1c1c(O)cc(CCCCC)cc1O [CBD, (1′R,2′R)-5′-methyl-4-pentyl-2′-(prop-1-en-2-yl)-1′,2′,3′,4′-tetrahydro-[1,1′-biphenyl]-2,6-diol]
Appearance after stress ([1]; 0.1 M hydrochloric acid, 80° C., 2 h, 4 h and 6 h): suspension of yellowish melted CBD in a clear colorless aqueous solution
Appearance after stress ([1]; 0.1 M sodium hydroxide, 80° C., 2 h, 4 h and 6 h): suspension of yellowish melted CBD in a violet aqueous solution
Appearance after stress ([1]; 24 h at 75% r.h.): did not change its appearance
Proposed main degradation products(s) ([1]; Acidic, 80° C.): D9-THC
Degradation of CBD ([1]; Acidic, 6 h, 80° C. (0.1 M hydrochloric acid)): 4%
Proposed main degradation products(s) ([1]; Alkaline stress): several isomers of CBQ
Degradation of CBD ([1]; Alkaline stress, stock solution at the time of the LC-MS analysis): > 80%
Proposed main degradation products(s) ([1]; Heat, 100° C. for 24 h): Hydroxy-CBD and Hydroxy-CBQ
Degradation of CBD ([1]; Heat, 24 h, 100° C.): 1%
Proposed main degradation products(s) ([1]; Humidity, 24 h, 24° C.): No prominent degradation product
Degradation of CBD ([1]; Humidity, 24 h, 24° C. (75% r.h.)): 0%
Degradation of CBD ([1]; Light, 24 h 24° C.): 1%
Proposed main degradation products(s) ([1]; Light, 24 h 24° C.): No prominent degradation product
Proposed main degradation products(s) ([1]; Oxidative stress (H2O2)): Hydroxy-CBD (CBD-OH)
Degradation of CBD ([1]; Oxidative, 6 h 80° C. (hydrogen peroxide 0.3% w/w)): 3%
Degradation of CBD ([1]; elevated temperatures lower than 100° C.): no significant degradation
Appearance after stress ([1]; heated to 50° C. and 60° C. for 1 hour): turned slightly yellow but did not change their physical condition
Appearance after stress ([1]; heated to 70° C. for one hour): partially melted
Appearance after stress ([1]; heated to 80° C. or higher): fully melted and exhibited a yellow color
Appearance after stress ([1]; hydrogen peroxide (0.3% w/w), 80° C., 2 h, 4 h and 6 h): suspension of yellowish melted CBD in a clear colorless aqueous solution
Appearance after stress ([1]; irradiated with light 24 h, 24° C.): turned slightly yellow
Hygroscopicity [2]: not hygroscopic
Solid form by HT-XRPD Ambient After AAC ([3]; Dichloromethane / 2,2,4-Trimethylepentane, AS:S ratio 4:1): A low yield
AS:S ratio 4:1 Precipitation? [3, 4]: No
Form (evap. ML) [3, 4]: Oily
AS:S ratio 4:1 Precipitation? ([3]; solvent 1,2-Dimethoxyethane, anti-solvent Water): No
AS:S ratio 4:1 Precipitation? ([3]; solvent 1,4-Dioxane, anti-solvent 2,2,4-Trimethylepentane): No
AS:S ratio 4:1 Precipitation? ([3]; solvent 1,4-Dioxane, anti-solvent Water): No
AS:S ratio 4:1 Precipitation? ([3]; solvent 2-Butanone, anti-solvent Water): No
AS:S ratio 4:1 Precipitation? [3, 5]: No
Form (evap. ML) [3, 5]: Oily
AS:S ratio 4:1 Precipitation? [3, 6]: No
Form (evap. ML) [3, 6]: Oily
AS:S ratio 4:1 Precipitation? ([3]; solvent Dichloromethane, anti-solvent 2,2,4-Trimethylepentane): No
AS:S ratio 4:1 Precipitation? [3, 7]: No
Form (evap. ML) [3, 7]: Oily
AS:S ratio 4:1 Precipitation? [3, 8]: No
Form (evap. ML) [3, 8]: A low
Form (evap. ML) after AAC [3, 8]: A low
AS:S ratio 4:1 Precipitation? [3, 9]: No
Form (evap. ML) [3, 9]: Oily
AS:S ratio 4:1 Precipitation? ([3]; solvent Methanol, anti-solvent Water): Yes
AS:S ratio 4:1 Precipitation? ([3]; solvent Tetrahydrofuran, anti-solvent Decane): No
AS:S ratio 4:1 Precipitation? ([3]; solvent Tetrahydrofuran, anti-solvent Water): No
AS:S ratio 4:1 Precipitation? [3, 10]: No
Form (evap. ML) [3, 10]: Oily
